Tests used:
[1] = system: DSS model of Inflammatory Bowel Disease (IBD); design: species or system C57Bl/6 mice; conditions: mouse
[2] = system: T-cell transfer IBD model; format: in vivo, SCID mice
Procedure: On study day 0, donor Balb/C mice are terminated, and spleens obtained for CD4+CD45RB^high cell isolation (Using a SCID IBD Cell Separation Protocol). After cells have been sorted and obtained, each recipient SCID animal receives an IP injection of, at a minimum, 4×10^5 cells (200 μl/mouse injections). Also on study day 0, SCID mice are weighed and randomized into treatment groups based on body weight. On study day 14, AHR agonist compound treatments are initiated and dosed orally daily; the control group receiving anti-IL12 (0.5 mg/mouse) is dosed IP once a week. On study day 49, animals are anesthetized with Isoflurane and bled to exsanguination followed by cervical dislocation. The entire colon is removed, measured, and weighed. Overall efficacy of AHR agonist compounds are based on a ratio of colon weight to length, and colon histopathology and colon cytokines (Th17 panel).

[3] = system: DSS model of Inflammatory Bowel Disease (IBD); format: in vivo, C57Bl/6 mice; conditions: DSS model
Procedure: On study day −1, C57Bl/6 mice are weighed and randomized into treatment groups based on body weight. On study day 0, treatment groups are given 2.5% DSS in drinking water and treatment is initiated on the same day, with either vehicle or AHR agonist compound(s). On study day 7, DSS drinking water is replaced with normal drinking water for the remainder of the study. Body weight is measured daily during the entire study. On study day 10, animals are anesthetized with Isoflurane and bled to exsanguination followed by cervical dislocation. The entire colon is removed and measured for length, weight, and weight per length. Overall efficacy of test AR agonist compounds is based on body weight, colon length, and colon histopathology. Histopathology data is assessed for appropriate parameters, as determined by a pathologist and the parameters for these DSS studies can include inflammation, erosion, gland loss, edema, hyperplasia, neutrophil count, mucosal thickening, lymphoid aggregate count and lymphoid aggregate size. The different parameter scores can be added for a summed score for the study histopathology.

[4] = system: human regulatory T cells (Tregs); test: Treg assay (human); format: cell-based; conditions: compound present during induction of Tregs, in vitro; FIG. 15
Procedure: On day 0, naïve T cells from cryopreserved human derived PBMCs were isolated. These cells were plated in 48 well plate at 500,000 cells/mL concentration with human CD3/CD28 activation tetramer (12.5 μL/1×10^6 cells) and differentiated into regulatory T cells (Tregs) with 1 ng/mL […] and 5 ng/mL human recombinant TL-2 in the presence of DMSO or different concentrations of AHR agonist compounds.
On day 5, the Tregs were counted and washed. CD25− Effector T cells (Teffs) were isolated from the same human donor and were labeled with Cell Trace Violet. The Tregs and Teffs were cocultured for 4 days in 96 well plate at 1:2 or 1:1 ratio with human CD3/CD28 tetramer (12.5 μL/1×10^6 cells).
At the end of a 4 day co-culture, the cells were washed and stained with LiveDead stain. They were run on flow cytometer and analyzed using FLOWJO software.

[5] = system: naive CD62L+ human T-Cells; test: Th17 assay; format: cell-based; conditions: FIG. 16
Procedure: On Day 1, naive CD62L+ human T-Cells were plated in a 96 well plate (25,000 cells in 200 uL media). Cells were activated with human CD3/CD28 tetramer (12.5 μL/1×10^6 cells) and differentiated with human Th17 cytokines (50 ng/mL IL-6, 20 ng/mL IL-1 beta, 10 ng/mL IL-23, 1 ng/mL TGF-beta, 12 μg/mL anti-human IFN-γ antibody and 10 μg/mL anti-human TL-4 antibody) for 10 days. Media containing cytokine cocktail and CD3/CD28 was refreshed every 2-3 days. On Day 10, cell supernatant was collected and frozen for cytokine analysis. Cells were stimulated with 1× Cell Stimulation Cocktail (PMA and Ionomycin) for 5 hours. After 5 hours of stimulation, cells were stained for intracellular cytokines (human CD4, IL-17A, IL-22). Samples were run on BD LSR FORTESSA and analyzed in FLOWJO software.

Cyp1a1 gene expression = system: Cyp1a1 gene expression; design: species or system C57BL/6N mice; conditions: mouse, in vivo
Procedure: C57BL/6N mice are weighed and randomized into treatment groups with group size of 3-5 mice. On study Day 1, treatment is initiated and necropsies follow on day 1 at 4 and 12 hours post-dose and on Day 2, 24 hours post-dose. On Day 1, mice are dosed orally with one dose of the AHR agonist compound(s) that are in a suspension and mixed well before dosing. At the designated time, animals are euthanized and plasma and tissue taken for compound levels (PK) and compound effect (PD) on gene expression. Liver samples and proximal colon are weighed and then frozen for subsequent RNA extraction and RT-PCR analysis. AHR activation is determined by measuring Cyp1a1 gene expression relative to a housekeeping gene, such as GAPDH or HPRT. Cyp1a1 expression levels in the liver are compared to Cyp1a1 levels in the colon to determine a colon:liver ratio to determine the level of GI preferred AHR activation.

[6] = T-cell transfer IBD model, FIG. 9

Row | in vivo AHR activation by expression of Cyp1a1 in the colon [1] | in vivo AHR activation by expression of Cyp1a1 in the colon ([2]; mouse, in vivo) | Compound | cytokine activity: IFN-γ, IL-1β, and MIP-3α/CCL20 ([2]; T-cell transfer IBD model, colon cytokines, FIG. 11) | cytokine activity: GM-CSF and IL-6 ([2]; T-cell transfer IBD model, colon cytokines, FIG. 12) | cytokine activity: IL-17/IL-25 and TNF-α ([2]; T-cell transfer IBD model, colon cytokines, FIG. 13) | body weight [2, 6] | colon weight [2, 6] | reduction in colon weight compared to vehicle [2, 6] [%] | reduction in colon weight per length compared to vehicle [2, 6] [%] | inflammation ([2]; T-cell transfer IBD model, FIG. 10) | inflammation and erosion (histopathology) ([3]; relative to vehicle control, FIG. 6, FIG. 19) | colon length ([3]; FIG. 5) | content score ([3]; FIG. 5) | suppressive functions of human Tregs [4] | IL-17A+ human T-cells ([5]; Th17 polarizing conditions) | IL-22+ human T-cells ([5]; Th17 polarizing conditions) | human Th17 cell differentiation ([5]; in vitro) | Cyp1a1 induction in the colon (Cyp1a1 gene expression)
1 | confirmed | confirmed | FC(F)(F)c1cccc(Nc2nc(-c3cccc(Cl)c3)cs2)c1 [Compound P-2] | significant reduction | significant reduction | reduction | increased body weight | decreased colon weight | 54 | 54 | significant reduction | minimal inflammation and mild erosion | increased colon length | improved content score | – | – | – | – | –
2 | – | – | Nc1cccc(-c2csc(Nc3cccc(C(F)(F)F)c3)n2)c1 [I-10] | – | – | – | – | – | – | – | – | – | – | – | increases suppressive functions | decreases | increases | modulates | comparable
